Laboratory results reported in patent US5578570A, “Method of treating septic shock using thymosin β4” (The George Washington University Medical Center, priority 1994, dated 1996).

Assays:
Assay type in all cases: in vivo
[1] = system: endotoxic mice; assay: Survival of Swiss Webster mice following lethal endotoxin dose and Tβ4; conditions: for Survival (No. mice alive): Table VII, endotoxin 60 mg/kg + Tβ4 50 μg 3x i.p., immediately following, 2 and 4 hrs after endotoxin, 10 mice at 0 hrs
Experimental: Swiss-Webster mice 4-6 weeks of age (20-25 g) were housed 6 per cage. The mice were divided into 2 groups: endotoxic mice (endotoxin 60 mg/kg i.p. in acute treatment) and endotoxic mice treated with Tβ4, 5 minutes and 2, 4, 6, 8, 10, 12, 14, 16, 18, 20, 22, 24 hours post administration of the endotoxin. Survival was recorded 2 times a day for 7 days.
Swiss-Webster mice 4-6 weeks of age (20-25 g) were divided into groups as follows.
1. Mice treated with a lethal dose of endotoxin (60 mg/kg).
2. […]
3. […]
4. […]

[2] = system: cGMP; assay: cGMP cerebellar levels in mice treated with lethal doses of endotoxin; conditions: endotoxin 60 mg/kg i.p. + Tβ4 0.8 mg/kg i.p.
From the text: (§1) The results presented in Tables III-V below show effects of Tβ4 respectively on mice cerebellar cGMP levels, blood serum TNF-α levels, and blood serum TNF-α and IL-1α levels.

[3] = system: TNF-α; assay: Serum TNF-α levels in mice treated with lethal doses of endotoxin; conditions: for TNF-α (serum level): Table XIII, endotoxin 60 mg/kg + Tβ4 100 μg administered immediately after endotoxin
From the text: as §1
(§2) Using the same methods and materials as in examples 1-3, the effect which Tβ4 has on blood levels of IL-1α, TNF-α, PAG, Txβ2 and 6-keto-PGF1 α, which are pathological mediators of endotoxin induced lethality, was studied.

[4] = system: IL-1α; assay: Serum IL-1α levels in mice treated with lethal dose of endotoxin; conditions: Table V; pretreatment (SOD 3.3 × 10^4 μ/kg, 30 minutes before endotoxin; Tβ4 100 μg/mice); blood collected 1 hr after endotoxin
From the text: as §1, §2

[5] = system: PAF; assay: PAF blood levels in mice after lethal dose of endotoxin; conditions: endotoxin 60 mg/kg + Tβ4 100 μg administered simultaneously; for PAF (plasma levels): Table IX; for PAF (serum levels): Table XII
From the text: as §2

[6] = system: T × β2; assay: T×β2 plasma levels in mice after lethal dose of endotoxin; conditions: Table X, endotoxin 60 mg/kg + Tβ4 100 μg administered simultaneously
From the text: as §2

[7] = system: Rats with Septic Shock; assay: Survival of Sprague-Dawley rats in septic shock model (peritonitis); conditions: for Survival of rats (number alive): Table XIV, septic shock + antibiotic (gentamicin sulfate, 1 mg/rat) + thymosin β4 1 mg/rat × 3 (0, 2, 4 hr post induction of peritonitis), 10 rats at 0 hr; for Number of Rats Alive: septic shock + Tβ4 1 mg/rat × 3, 10 rats at 0 h
From the text: (§3) Using a septic shock model in rats (Sprague-Dawley, male, 200-225 g each), the effect of thymosin β4 alone and together with antibiotics was studied. Peritonitis was induced in rats in the following way. A 1-cm incision was made into the peritoneal which exposed the cecum. A tight ligature was placed around the cecum with 4-0 suture distal to the insertion of the small bowel, forming an area of devitalized tissue while maintaining bowel continuity. A puncture wound was made with 16-gauge needle into the anti-mesenteric surface of the cecum and a small amount of fecal contents was expressed through the wound. The cecum was replaced into the peritoneal cavity, and the anterior peritoneal wall and skin were closed with surgical staples. Each animal was given a bolus of normal saline (15 ml/kg) for hydration and allowed to recover overnight.

[8] = system: TNFα; assay: TNFα levels in a septic shock model in rat; conditions: rats with septic shock + Tβ4 1 mg/rat × 3
From the text: as §3
(§4) The results presented in Tables XV to XVIII below show effects of Tβ4 respectively on rat cytokine levels, blood malonyldialdehyde levels, glutathione levels and arachidonic acid metabolic levels.

[9] = system: IL1 α; assay: IL1α levels in a septic shock model in rat; conditions: rats with septic shock + Tβ4 1 mg/rat × 3
From the text: as §3, §4

[10] = system: malonyldialdehyde; assay: Lipid peroxidation (blood malonyldialdehyde) in a septic shock model in rat; conditions: for Blood Levels of malonyldialdehyde: rats with septic shock + Tβ4 1 mg/rat × 3
From the text: as §3, §4

[11] = system: glutathione; assay: Glutathione levels in a rat septic shock model; conditions: for RBC GSH: rats with septic shock + 1 mg/rat × 3
From the text: as §3, §4

[12] = system: 6-keto-PGF1; assay: 6-keto-PGF1 levels in a septic shock model in rat; conditions: rats with septic shock + Tβ4 1 mg/rat × 3
From the text: as §3, §4

[13] = system: T × β2; assay: T×β2 levels in a septic shock model in rat; conditions: rats with septic shock + Tβ4 1 mg/rat × 3
From the text: as §3, §4

[14] = system: blood free radical levels; assay: Blood free radical levels; conditions: compared with SOD
[15] = during sepsis, with Tβ4 administration

Thymosin β4 [Tβ4]
Survival (No. mice alive) ([1]; 5 days): 7
Survival (No. mice alive) ([1]; 6 days): 7
survival rate ([1]; Tβ4 administered 3 times post administration of endotoxin): 100%
most effective protective dose ([1]; administered three times): 100 µg
survival of mice treated with endotoxin (in words) ([1]; administered three times in doses of 50 μg and 20 μg): partially increased the survival
survival rate ([1]; lethal endotoxin shock, endotoxin 60 mg/kg i.p., Example 1): ≤ 100%
Cerebellar cortex cyclic GMP [2]: 12.1 ± 0.9 pmol per mg/protein
Serum TNF-α ([3]; Table IV, endotoxin 60 mg/kg + Tβ4 100 μg, 1 hr): 823 ± 79 pg/mL
Serum TNF-α ([3]; Table IV, endotoxin 60 mg/kg + Tβ4 100 μg, 3 hr): 535 ± 47 pg/mL
Serum TNF-α ([3]; Table IV, endotoxin 60 mg/kg + Tβ4 100 μg, 5 hr): 480 ± 45 pg/mL
Serum TNF-α ([3]; Table V, pretreatment (SOD 3.3 × 10^4 μ/kg, 30 minutes before endotoxin; Tβ4 100 μg/mice), blood collected 1 hr after endotoxin): 321 ± 26.2 pg/mL
TNF-α (serum level) ([3]; 1 hr): 807 pg/mL
TNF-α (serum level) ([3]; 3 hr): 591 pg/mL
TNF-α (serum level) ([3]; 5 hr): 496 pg/mL
Serum IL-1α [4]: 298 ± 20 pg/mL
PAF (plasma levels) ([5]; 0.5 hr.): 63 ± 7 pg/mL
PAF (plasma levels) ([5]; 1 hr): 161 ± 17 pg/mL
PAF (plasma levels) ([5]; 2 hr): 66 ± 5 pg/mL
PAF (plasma levels) ([5]; 3 hr): 46 ± 5 pg/mL
PAF (serum levels) ([5]; 1 hr): 807 pg/mL
PAF (serum levels) ([5]; 3 hr): 591 pg/mL
PAF (serum levels) ([5]; 5 hr): 496 pg/mL
T × β2 (plasma levels) ([6]; 0.5 hr.): 209 ± 9,5 pg/ml
T × β2 (plasma levels) ([6]; 1 hr): 607 ± 53 pg/mL
T × β2 (plasma levels) ([6]; 2 hr): 196 ± 18 pg/mL
T × β2 (plasma levels) ([6]; 3 hr): 112 ± 9 pg/mL
Survival of rats (number alive) ([7]; 24 hr): 4
Survival of rats (number alive) ([7]; 48 hr): 3
Survival of rats (number alive) ([7]; 72 hr): 3
Number of Rats Alive ([7]; Table XIX, 24 h): 3
Number of Rats Alive ([7]; Table XIX, 48 h): 3
Number of Rats Alive ([7]; Table XIX, 72 h): 3
Number of Rats Alive ([7]; Table XX, 24 h): 4
Number of Rats Alive ([7]; Table XX, 48 h): 3
Number of Rats Alive ([7]; Table XX, 72 h): 3
TNFα [8]: 1259 ± 138 pg/mL
IL1 α [9]: 853 ± 62 pg/mL
peroxidation of lipids in blood (malonyldialdehyde), in words [10, 15]: returned to normal or about normal
Blood Levels of malonyldialdehyde ([10]; first value column): 19.6 ± 1.7 nNol MDA
Blood Levels of malonyldialdehyde ([10]; second value column): 16.8 ± 1.5 nNol MDA
circulating blood levels of glutathione (in words) [11, 15]: returns circulatory gluthathine levels to normal or about normal
RBC GSH ([11]; first value column): 1.45 ± 0.11 μmoles/ml cells
RBC GSH ([11]; second value column): 1.39 ± 0.12 μmoles/ml cells
6-keto-PGF1 [12]: 829 ± 59 pg/mL
T × β2 [13]: 1627 ± 123 pg/mL
blood free radical levels (in words) [14]: reduce blood free radical levels almost as much as SOD
